Test results published in patent publication US20100267561A1, “HERBICIDAL PYRIDAZINONE DERIVATIVES” (priority 2007, published 2010).

Assays:
Assay type in all cases: in vivo
[1] = system: pigweed (Amaranthus retroflexus); assay: Test A pre-/postemergence plant response
Procedure, shortened: (§1)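 Ratings run 0–100 (100 = complete control), assigned visually against untreated controls roughly 10 days after treatment in a greenhouse. Compounds, formulated in non-phytotoxic solvent containing surfactant, were applied as a soil-directed preemergence spray and concurrently postemergence to one- to two-leaf plants 2–10 cm tall.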

[2] = system: wheat (Triticum aestivum); assay: Test A pre-/postemergence plant response
Procedure, shortened: as §1

corn (Zea mays) = assay: Test A pre-/postemergence plant response
Procedure, shortened: as §1

[3] = system: barnyardgrass (Echinochloa crus-galli); assay: Test A pre-/postemergence plant response
Procedure, shortened: as §1

[4] = system: morningglory (Ipomoea coccinea); assay: Test A pre-/postemergence plant response
Procedure, shortened: as §1

[5] = system: pigweed (Amaranthus retroflexus); assay: Test B pre-/postemergence plant response; details: for Pigweed plant response rating: 8 g ai/ha
Procedure, shortened: (§2)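 Visual scoring from 0 (no effect) to 100 (complete control) against untreated controls was done 13 to 15 days after greenhouse treatment. Chemicals were formulated in a surfactant-containing non-phytotoxic solvent and applied to soil preemergence or to 1- to 4-leaf (2-18 cm) plants postemergence.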

[6] = system: catchweed bedstraw (Galium aparine); assay: Test B pre-/postemergence plant response; details: Preemergence; for Galium plant response rating: 8 g ai/ha
Procedure, shortened: as §2

[7] = system: johnsongrass (Sorghum halepense); assay: Test B pre-/postemergence plant response; details: for Johnsongrass plant response rating: 8 g ai/ha
Procedure, shortened: as §2

[8] = system: chickweed (Stellaria media); assay: Test B postemergence plant response; details: for Chickweed plant response rating: 8 g ai/ha, postemergence, 0-100 scale; for Plant response rating, Chickweed: Postemergence
Procedure, shortened: (§3)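 Visual injury score from 0 (none) to 100 (complete control) versus controls, taken 13 to 15 days after treatment in the greenhouse; chemicals applied postemergence, as formulated, to plants of 1- to 4-leaf stage (2 to 18 cm tall); dash denotes no test result.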

[9] = system: winter barley (Hordeum vulgare); assay: Test B postemergence plant response; details: for Barley plant response rating: 8 g ai/ha, postemergence, 0-100 scale; for Plant response rating, Barley: Postemergence, scale 0 to 100, 0 no effect, 100 complete control
Procedure, shortened: as §3

[10] = system: canarygrass (Phalaris minor); assay: Test B postemergence plant response; details: for Canarygrass plant response rating: 8 g ai/ha, postemergence, 0-100 scale; for Plant response rating, Canarygrass: Postemergence
Procedure, shortened: as §3

[11] = system: windgrass (Apera spica-venti); assay: Test B postemergence plant response; details: for Windgrass plant response rating: 8 g ai/ha, postemergence, 0-100 scale; for Plant response rating, Windgrass: Postemergence
Procedure, shortened: as §3

[12] = Postemergence, 31 g ai/ha, 0 to 100 scale, 0 no effect, 100 complete control
[13] = Postemergence, 125 g ai/ha, 0 to 100 scale, 0 no effect, 100 complete control
[14] = Preemergence, 125 g ai/ha, 0 to 100 scale (0 no effect, 100 complete control)
[15] = Preemergence, 31 g ai/ha, 0 to 100 scale, 0 is no effect, 100 is complete control
[16] = Postemergence, 16 g ai/ha, scale 0 to 100
[17] = Postemergence, 31 g ai/ha, scale 0 to 100, 0 no effect, 100 complete control
[18] = Postemergence, 62 g ai/ha, scale 0 to 100, 0 no effect, 100 complete control
[19] = Preemergence, 16 g ai/ha, scale 0 to 100 (0 no effect, 100 complete control)
[20] = Preemergence, 31 g ai/ha, 0 to 100 scale, 0 no effect, 100 complete control
[21] = Preemergence, 62 g ai/ha, scale 0 to 100
[22] = 16 g ai/ha, scale 0 to 100 (0 no effect, 100 complete control)
[23] = 31 g ai/ha, 0 to 100 scale, 0 no effect, 100 complete control
[24] = 31 g ai/ha, scale 0 to 100, 0 no effect, 100 complete control
[25] = 62 g ai/ha, scale 0 to 100, 0 no effect, 100 complete control

Cc1cc(-c2ccc(Cl)cc2)nn1-c1c(OC(=O)c2cccc(Cl)c2)cnn(C)c1=O [Compound 32]
Plant response rating, Pigweed [1, 12]: 0 | Plant response rating, Pigweed [1, 13]: 10 | Plant response rating, Pigweed [1, 14]: 0 | Plant response rating, Wheat [2, 12]: 0 | Plant response rating, Wheat [2, 13]: 20 | Plant response rating, Wheat [2, 15]: 0 | Plant response rating, Wheat [2, 14]: 60 | Plant response rating, Corn (corn (Zea mays); [12]): 0 | Plant response rating, Corn (corn (Zea mays); [13]): 50 | Plant response rating, Corn (corn (Zea mays); [15]): 0 | Plant response rating, Corn (corn (Zea mays); [14]): 60 | Plant response rating, Barnyardgrass [3, 12]: 0 | Plant response rating, Barnyardgrass [3, 13]: 70 | Plant response rating, Barnyardgrass [3, 15]: 20 | Plant response rating, Barnyardgrass [3, 14]: 90 | Plant response rating, Morningglory [4, 12]: 0 | Plant response rating, Morningglory [4, 13]: 0 | Plant response rating, Morningglory [4, 15]: 0 | Plant response rating, Morningglory [4, 14]: 0 | Pigweed plant response rating ([5]; postemergence, 0-100 scale): 0 | Plant response rating, Pigweed [5, 16]: 0 | Plant response rating, Pigweed [5, 17]: 0 | Plant response rating, Pigweed [5, 18]: 0 | Plant response rating, Pigweed [5, 19]: 0 | Plant response rating, Pigweed [5, 20]: 0 | Plant response rating, Pigweed [5, 21]: 0 | Pigweed plant response rating ([5]; Preemergence, scale 0 to 100): 0 | Plant response rating, Galium [6, 22]: 0 | Plant response rating, Galium [6, 23]: 0 | Plant response rating, Galium ([6]; 62 g ai/ha, scale 0 to 100): 0 | Galium plant response rating ([6]; scale 0 to 100): 0 | Johnsongrass plant response rating ([7]; postemergence, 0-100 scale): 50 | Plant response rating, Johnsongrass [7, 16]: 70 | Plant response rating, Johnsongrass [7, 17]: 98 | Plant response rating, Johnsongrass [7, 18]: 98 | Plant response rating, Johnsongrass [7, 19]: 75 | Plant response rating, Johnsongrass [7, 20]: 85 | Plant response rating, Johnsongrass [7, 21]: 90 | Johnsongrass plant response rating ([7]; Preemergence, scale 0 to 100): 65 | Chickweed plant response rating [8]: 0 | Plant response rating, Chickweed ([8]; 16 g ai/ha, scale 0 to 100): 0 | Plant response rating, Chickweed [8, 24]: 0 | Plant response rating, Chickweed [8, 25]: 20 | Barley plant response rating [9]: 0 | Plant response rating, Barley ([9]; 16 g ai/ha): 0 | Plant response rating, Barley ([9]; 31 g ai/ha): 0 | Plant response rating, Barley ([9]; 62 g ai/ha): 0 | Canarygrass plant response rating [10]: 0 | Plant response rating, Canarygrass ([10]; 16 g ai/ha, scale 0 to 100): 10 | Plant response rating, Canarygrass [10, 24]: 10 | Plant response rating, Canarygrass [10, 25]: 30 | Windgrass plant response rating [11]: 0 | Plant response rating, Windgrass ([11]; 16 g ai/ha, scale 0 to 100): 0 | Plant response rating, Windgrass [11, 25]: 50

Cc1cc(-c2ccc(Cl)cc2)nn1-c1c(OS(=O)(=O)c2ccccc2)cnn(C)c1=O [Compound 35]
Plant response rating, Pigweed [1, 12]: 0 | Plant response rating, Pigweed [1, 13]: 0 | Plant response rating, Pigweed [1, 15]: 0 | Plant response rating, Pigweed [1, 14]: 30 | Plant response rating, Wheat [2, 12]: 0 | Plant response rating, Wheat [2, 13]: 60 | Plant response rating, Wheat [2, 15]: 20 | Plant response rating, Wheat [2, 14]: 80 | Plant response rating, Corn (corn (Zea mays); [12]): 0 | Plant response rating, Corn (corn (Zea mays); [13]): 60 | Plant response rating, Corn (corn (Zea mays); [15]): 0 | Plant response rating, Corn (corn (Zea mays); [14]): 80 | Plant response rating, Barnyardgrass [3, 12]: 60 | Plant response rating, Barnyardgrass [3, 13]: 90 | Plant response rating, Barnyardgrass [3, 15]: 80 | Plant response rating, Barnyardgrass [3, 14]: 100 | Plant response rating, Morningglory [4, 12]: 0 | Plant response rating, Morningglory [4, 13]: 0 | Plant response rating, Morningglory [4, 15]: 0 | Plant response rating, Morningglory [4, 14]: 0 | Pigweed plant response rating ([5]; postemergence, 0-100 scale): 0 | Plant response rating, Pigweed [5, 16]: 0 | Plant response rating, Pigweed [5, 17]: 0 | Plant response rating, Pigweed [5, 18]: 0 | Plant response rating, Pigweed [5, 19]: 0 | Plant response rating, Pigweed [5, 20]: 0 | Plant response rating, Pigweed [5, 21]: 0 | Pigweed plant response rating ([5]; Preemergence, scale 0 to 100): 0 | Plant response rating, Galium [6, 22]: 0 | Plant response rating, Galium [6, 23]: 0 | Plant response rating, Galium ([6]; 62 g ai/ha, scale 0 to 100): 20 | Galium plant response rating ([6]; scale 0 to 100): 0 | Johnsongrass plant response rating ([7]; postemergence, 0-100 scale): 0 | Plant response rating, Johnsongrass [7, 16]: 60 | Plant response rating, Johnsongrass [7, 17]: 95 | Plant response rating, Johnsongrass [7, 18]: 95 | Plant response rating, Johnsongrass [7, 19]: 80 | Plant response rating, Johnsongrass [7, 20]: 80 | Plant response rating, Johnsongrass [7, 21]: 80 | Johnsongrass plant response rating ([7]; Preemergence, scale 0 to 100): 45 | Chickweed plant response rating [8]: 0 | Plant response rating, Chickweed ([8]; 16 g ai/ha, scale 0 to 100): 0 | Plant response rating, Chickweed [8, 24]: 0 | Plant response rating, Chickweed [8, 25]: 0 | Barley plant response rating [9]: 0 | Plant response rating, Barley ([9]; 16 g ai/ha): 0 | Plant response rating, Barley ([9]; 31 g ai/ha): 5 | Plant response rating, Barley ([9]; 62 g ai/ha): 35 | Canarygrass plant response rating [10]: 0 | Plant response rating, Canarygrass ([10]; 16 g ai/ha, scale 0 to 100): 0 | Plant response rating, Canarygrass [10, 24]: 5 | Plant response rating, Canarygrass [10, 25]: 45 | Windgrass plant response rating [11]: 0 | Plant response rating, Windgrass ([11]; 16 g ai/ha, scale 0 to 100): 0 | Plant response rating, Windgrass [11, 25]: 40

Cc1cc(-c2ccc(Cl)cc2)nn1-c1c(OC(=O)CC(C)C)cnn(C)c1=O [Compound 37]
Plant response rating, Pigweed [1, 12]: 0 | Plant response rating, Pigweed [1, 13]: 0 | Plant response rating, Pigweed [1, 15]: 0 | Plant response rating, Pigweed [1, 14]: 0 | Plant response rating, Wheat [2, 12]: 20 | Plant response rating, Wheat [2, 13]: 70 | Plant response rating, Wheat [2, 15]: 30 | Plant response rating, Wheat [2, 14]: 90 | Plant response rating, Corn (corn (Zea mays); [12]): 60 | Plant response rating, Corn (corn (Zea mays); [13]): 100 | Plant response rating, Corn (corn (Zea mays); [15]): 30 | Plant response rating, Corn (corn (Zea mays); [14]): 90 | Plant response rating, Barnyardgrass [3, 12]: 90 | Plant response rating, Barnyardgrass [3, 13]: 100 | Plant response rating, Barnyardgrass [3, 15]: 90 | Plant response rating, Barnyardgrass [3, 14]: 100 | Plant response rating, Morningglory [4, 12]: 0 | Plant response rating, Morningglory [4, 13]: 0 | Plant response rating, Morningglory [4, 15]: 0 | Plant response rating, Morningglory [4, 14]: 0 | Pigweed plant response rating ([5]; postemergence, 0-100 scale): 0 | Plant response rating, Pigweed [5, 16]: 0 | Plant response rating, Pigweed [5, 17]: 0 | Plant response rating, Pigweed [5, 18]: 0 | Plant response rating, Pigweed [5, 19]: 0 | Plant response rating, Pigweed [5, 20]: 0 | Plant response rating, Pigweed [5, 21]: 0 | Pigweed plant response rating ([5]; Preemergence, scale 0 to 100): 0 | Plant response rating, Galium [6, 22]: 0 | Plant response rating, Galium [6, 23]: 0 | Plant response rating, Galium ([6]; 62 g ai/ha, scale 0 to 100): 0 | Galium plant response rating ([6]; scale 0 to 100): 0 | Johnsongrass plant response rating ([7]; postemergence, 0-100 scale): 0 | Plant response rating, Johnsongrass [7, 16]: 55 | Plant response rating, Johnsongrass [7, 17]: 95 | Plant response rating, Johnsongrass [7, 18]: 100 | Plant response rating, Johnsongrass [7, 19]: 50 | Plant response rating, Johnsongrass [7, 20]: 80 | Plant response rating, Johnsongrass [7, 21]: 80 | Johnsongrass plant response rating ([7]; Preemergence, scale 0 to 100): 50 | Chickweed plant response rating [8]: 0 | Plant response rating, Chickweed ([8]; 16 g ai/ha, scale 0 to 100): 0 | Plant response rating, Chickweed [8, 24]: 0 | Plant response rating, Chickweed [8, 25]: 0 | Barley plant response rating [9]: 0 | Plant response rating, Barley ([9]; 16 g ai/ha): 0 | Plant response rating, Barley ([9]; 31 g ai/ha): 5 | Plant response rating, Barley ([9]; 62 g ai/ha): 15 | Canarygrass plant response rating [10]: 0 | Plant response rating, Canarygrass ([10]; 16 g ai/ha, scale 0 to 100): 10 | Plant response rating, Canarygrass [10, 24]: 10 | Plant response rating, Canarygrass [10, 25]: 40 | Windgrass plant response rating [11]: 10 | Plant response rating, Windgrass ([11]; 16 g ai/ha, scale 0 to 100): 60 | Plant response rating, Windgrass [11, 25]: 85
